Measured values taken from US11609221B2, “Method for detecting the presence of a contaminant in a liquid” (priority 2017, dated 2023).
≈ marks a conversion by molar mass, not a printed value.

Columns and labels:
[1] = test system: benthic aquatic macroinvertebrates; test: Toximeter locomotor index monitoring of benthic aquatic macroinvertebrates during contamination episodes; assay type: in vivo, Gammarus fossarum, Erpobdella testacea, Radix auricularia; conditions: 100 μg·L^−1, contamination episodes of 20-24 h, even after several episodes; FIG. 3
Method: For the purposes of the present invention, “locomotor index” corresponds to an average distance calculated according to the study context (field or laboratory) over the 10% to 80% of the lowest values of individual distances travelled. The locomotor index is the average of these shortest distances. This locomotor index is calculated on an integration time step that can be chosen between 2 and 120 minutes. The values of distances travelled are squared before the index is calculated, so the locomotive index is expressed in mm^2/unit of time.
In the examples, only benthic aquatic macroinvertebrates calibrated in terms of size, sex, non-parasitized, from a single population and housing for two weeks in the laboratory are shown. The benthic aquatic macroinvertebrates are placed in a cage under camera monitoring where 16 individuals are placed alone in a volume of 50 mL of water.
The cage is made of neutral materials (polypropylene) and without the use of toxic products (no glue). These cages (FIG. 1) are connected to a pre-bubbled, thermo-regulated and filtered liquid supply and then circulate in the chamber that receives the effluent at a flow rate of 6 L/h. […]

Daphnia = conditions: after 48 h exposure; cited from earlier work

Compound: CNC(=O)ON=C(C)SC [methomyl]
- time to detect a toxicity of the product (locomotor index) [1]: ≤ 3 h
- LC50 in Daphnia (Daphnia): 0.028 µg/mL (≈ 0.173 µM)
